Measurements: the CheMixHub viscosity set
Where “and” joins values, the source holds several entries; their conditions need not be identical. Identical values can stand only once.

Test: xn = mol fraction of the nth substance listed

CCNCCO + CCCCOCCO
viscosity, 101.33 kPa
Conditions	293.15 K	298.15 K	303.15 K	308.15 K	313.15 K	318.15 K	323.15 K
x1 = 0.1	3.962 mPa·s	3.42 mPa·s	2.977 mPa·s	2.61 mPa·s	2.304 mPa·s	2.046 mPa·s	1.828 mPa·s
x1 = 0.13	3.96 mPa·s	3.42 mPa·s	2.98 mPa·s	2.61 mPa·s	2.3 mPa·s	2.05 mPa·s	1.83 mPa·s
x1 = 0.2	4.804 mPa·s	4.103 mPa·s	3.536 mPa·s	3.07 mPa·s	2.685 mPa·s	2.365 mPa·s	2.096 mPa·s
x1 = 0.36	5.75 mPa·s	4.86 mPa·s	4.15 mPa·s	3.57 mPa·s	3.09 mPa·s	2.7 mPa·s	2.38 mPa·s
x1 = 0.4	5.753 mPa·s	4.86 mPa·s	4.146 mPa·s	3.567 mPa·s	3.094 mPa·s	2.703 mPa·s	2.377 mPa·s
x1 = 0.5	6.822 mPa·s	5.698 mPa·s	4.811 mPa·s	4.101 mPa·s	3.527 mPa·s	3.057 mPa·s	2.67 mPa·s
x1 = 0.57	7.99 mPa·s	6.61 mPa·s	5.53 mPa·s	4.67 mPa·s	3.98 mPa·s	3.43 mPa·s	2.97 mPa·s
x1 = 0.6	7.994 mPa·s	6.608 mPa·s	5.525 mPa·s	4.67 mPa·s	3.984 mPa·s	3.429 mPa·s	2.975 mPa·s
x1 = 0.7	9.303 mPa·s	7.606 mPa·s	6.3 mPa·s	5.278 mPa·s	4.466 mPa·s	3.815 mPa·s	3.288 mPa·s
x1 = 0.8	10.71 mPa·s and 12.33 mPa·s	8.67 mPa·s and 9.873 mPa·s	7.112 mPa·s and 8.025 mPa·s	5.907 mPa·s and 6.61 mPa·s	4.962 mPa·s and 5.51 mPa·s	4.21 mPa·s and 4.644 mPa·s	3.606 mPa·s and 3.953 mPa·s
x1 = 0.9	14.15 mPa·s	11.21 mPa·s	9.023 mPa·s	7.368 mPa·s	6.098 mPa·s	5.103 mPa·s	4.316 mPa·s

CCCC[n+]1ccn(C)c1.N#C[C-](C#N)C#N + CCCCn1cc[n+](C)c1.O=S(=O)([N-]S(=O)(=O)C(F)(F)F)C(F)(F)F
Conditions	viscosity [mPa·s]
298.15 K, 100 kPa, x2 = 0.751	43.15

CC(C)OCCO + CCCN
viscosity [mPa·s], 101.33 kPa
Conditions	298.15 K	308.15 K	318.15 K
x1 = 0.0207	0.381	0.347	0.305
x1 = 0.0475	0.413	0.372	0.328
x1 = 0.0745	0.451	0.398	0.35
x1 = 0.1534	0.575	0.493	0.425
x1 = 0.2413	0.732	0.615	0.517
x1 = 0.2917	0.841	0.702	0.578
x1 = 0.3559	0.992	0.808	0.662
x1 = 0.4223	1.147	0.935	0.746
x1 = 0.4366	1.183	0.966	0.767
x1 = 0.5416	1.445	1.145	0.905
x1 = 0.6413	1.681	1.319	1.032
x1 = 0.7365	1.875	1.464	1.142
x1 = 0.8564	2.047	1.577	1.252
x1 = 0.9246	2.077	1.617	1.283
x2 = 0.0101	2.099	1.645	1.309

CCOCCOCCOCC + CCCN
298.15 K, 101 kPa
Conditions	viscosity [mPa·s]
x1 = 0.005	0.361
x1 = 0.0106	0.367
x1 = 0.0197	0.379
x1 = 0.0413	0.402
x1 = 0.0623	0.423
x1 = 0.0897	0.451
x1 = 0.1329	0.498
x1 = 0.1762	0.538
x1 = 0.2138	0.572
x1 = 0.2434	0.6
x1 = 0.2446	0.603
x1 = 0.2849	0.636
x1 = 0.2887	0.64
x1 = 0.3251	0.672
x1 = 0.3686	0.709
x1 = 0.4053	0.737
x1 = 0.4615	0.786
x1 = 0.5261	0.848
x1 = 0.5564	0.875
x1 = 0.6025	0.919
x1 = 0.6358	0.951
x1 = 0.6749	0.988
x1 = 0.7261	1.038
x1 = 0.7852	1.09
x1 = 0.8437	1.152
x1 = 0.8917	1.201
x1 = 0.9396	1.235
x1 = 0.9698	1.248

CC(C)OCCO + CCCNCCC
viscosity [mPa·s], 101.33 kPa
Conditions	298.15 K	308.15 K	318.15 K
x1 = 0.0484	0.544	0.476	0.41
x1 = 0.0855	0.581	0.505	0.435
x1 = 0.1225	0.625	0.534	0.458
x1 = 0.1899	0.704	0.599	0.502
x1 = 0.2514	0.798	0.671	0.555
x1 = 0.3234	0.918	0.76	0.617
x1 = 0.3933	1.046	0.855	0.685
x1 = 0.4465	1.154	0.941	0.747
x1 = 0.482	1.237	1.001	0.785
x1 = 0.5205	1.313	1.058	0.83
x1 = 0.6318	1.571	1.242	0.959
x1 = 0.73	1.776	1.381	1.076
x1 = 0.8358	1.959	1.516	1.187
x1 = 0.919	2.057	1.595	1.268
x1 = 0.9596	2.087	1.618	1.292

CC(C)OCCO + CCCO
298.15 K, 101.33 kPa
Conditions	viscosity [mPa·s]
x1 = 0.0192	1.947
x1 = 0.0257	1.944
x1 = 0.045	1.941
x1 = 0.0645	1.938
x1 = 0.081	1.933
x1 = 0.1072	1.93
x1 = 0.1486	1.927
x1 = 0.1863	1.923
x1 = 0.2438	1.919
x1 = 0.2942	1.914
x1 = 0.3545	1.916
x1 = 0.3782	1.921
x1 = 0.4251	1.929
x1 = 0.4749	1.938
x1 = 0.5261	1.949
x1 = 0.5659	1.958
x1 = 0.6184	1.971
x1 = 0.6608	1.983
x1 = 0.7	1.996
x1 = 0.7606	2.015
x1 = 0.8023	2.025
x1 = 0.8623	2.042
x1 = 0.8845	2.052
x1 = 0.9485	2.064

CCCCOCCO + CCCO
viscosity [mPa·s], 101 kPa
Conditions	x1 = 0.3032	x1 = 0.8553	x1 = 0.9516
298.15 K	–	2.725	–
303.15 K	1.925	–	2.615

CCOCCOCCOCC + CCCO
298.15 K, 101.33 kPa
Conditions	viscosity [mPa·s]
x1 = 0.007	1.918
x1 = 0.0129	1.894
x1 = 0.0249	1.844
x1 = 0.0395	1.788
x1 = 0.0516	1.747
x1 = 0.0695	1.687
x1 = 0.097	1.611
x1 = 0.1283	1.541
x1 = 0.1736	1.458
x1 = 0.2229	1.396
x1 = 0.2672	1.354
x1 = 0.3115	1.32
x1 = 0.3638	1.291
x1 = 0.4026	1.28
x1 = 0.4592	1.259
x1 = 0.5239	1.243
x1 = 0.5856	1.231
x1 = 0.6363	1.227
x1 = 0.6742	1.225
x1 = 0.7119	1.224
x1 = 0.7662	1.222
x1 = 0.8311	1.226
x1 = 0.8815	1.231
x1 = 0.9142	1.235
x1 = 0.9468	1.239
x1 = 0.9756	1.24

COC(=O)c1ccccc1 + CCCO
viscosity [mPa·s], 100 kPa
Conditions	x1 = 0.05	x1 = 0.1	x1 = 0.2	x1 = 0.3	x1 = 0.4	x1 = 0.5	x1 = 0.6	x1 = 0.65	x1 = 0.8	x1 = 0.9
293.2 K	2.016	1.887	1.724	1.65	1.622	1.621	1.649	1.669	1.76	1.872
298.2 K	1.794	1.685	1.547	1.487	1.464	1.466	1.492	1.511	1.594	1.693
303.2 K	1.601	1.509	1.395	1.344	1.327	1.332	1.357	1.375	1.453	1.54
308.2 K	1.434	1.356	1.262	1.22	1.209	1.215	1.239	1.257	1.33	1.41
313.2 K	1.288	1.223	1.145	1.112	1.104	1.113	1.138	1.154	1.223	1.297
